# Data from ChEMBL document CHEMBL5241075, “Advancement of chimeric hybrid drugs to cure malaria infection: An overview with special emphasis on endoperoxide pharmacophores” (Eur J Med Chem, 2021).
# Activity calls are given as the source filed them. The calls are words filed in the database; no cut-off is given here.
# What was measured:
# Plasmodium falciparum [1] = test: Antiplasmodial activity against chloroquine resistant Plasmodium falciparum; type: functional, organism-based
# [2] = Stability of compound at pH 2 assessed as half life; type: physicochemical; conditions: buffer
# Plasmodium yoelii = test: Antimalarial activity against Plasmodium yoelii infected in swiss mouse assessed as reduction in parasitemia at 96 mg/kg, po relative to control; type: functional; parameters: scale not given: the % may be the effect or the level left
# Plasmodium falciparum [3] = test: Antiplasmodial activity against Plasmodium falciparum DD2; type: functional, organism-based
# Plasmodium falciparum [4] = test: Antiplasmodial activity against Plasmodium falciparum NF54; type: functional, organism-based
# Plasmodium falciparum [5] = test: Antiplasmodial activity against Plasmodium falciparum K1; type: functional, organism-based
# Plasmodium falciparum [6] = test: Resistance index, ratio of IC50 for antiplasmodial activity against Plasmodium falciparum K1 to IC50 for antiplasmodial activity against Plasmodium falciparum D10; type: functional
# Plasmodium falciparum [7] = test: Antiplasmodial activity against Plasmodium falciparum D10; type: functional, organism-based
# HeLa = test: Antiproliferative activity against human HeLa cells assessed as cell growth inhibition; type: functional, cell-based
# [8] = Therapeutic index, ratio of IC50 for antiproliferative activity against human HeLa cells to IC50 for antiplasmodial activity against Plasmodium falciparum K1; type: toxicity, cell-based; conditions: for selectivity ratio: HeLa cells, read-out: Ratio IC50
# Hemozoin = test: Inhibition of Beta-hematin in Plasmodium falciparum
# Caco-2 = test: Cytotoxicity against human Caco-2 cells assessed as reduction in cell viability; type: functional
# Plasmodium falciparum [9] = test: Antiplasmodial activity against Plasmodium falciparum W2; type: functional, organism-based
# Plasmodium berghei [10] = test: Antimalarial activity against liver stage Plasmodium berghei; type: functional, organism-based
# Plasmodium falciparum [11] = test: Antiplasmodial activity against Plasmodium falciparum TM91C235; type: functional, organism-based
# Plasmodium berghei [12] = test: Antimalarial activity against Plasmodium berghei KBG 173 infected in ICR mouse assessed as survival time at 20 mg/kg/day, po qd administered 3 to 5 days post infection; type: functional; conditions: time 3-5 day
# Plasmodium berghei [13] = test: Antimalarial activity against Plasmodium berghei KBG 173 infected in ICR mouse assessed as animal survival at 20 mg/kg/day, po qd administered 3 to 5 days post infection; type: functional, organism-based; conditions: time 3-5 day
# Plasmodium berghei [14] = test: Antimalarial activity against Plasmodium berghei KBG 173 infected in ICR mouse assessed as survival time at 320 mg/kg/day, po qd administered 3 to 5 days post infection; type: functional; conditions: time 3-5 day
# Plasmodium berghei [15] = test: Antimalarial activity against Plasmodium berghei KBG 173 infected in ICR mouse assessed as survival time at 80 mg/kg/day, po qd administered 3 to 5 days post infection; type: functional; conditions: time 3-5 day
# Plasmodium berghei [16] = test: Antimalarial activity against Plasmodium berghei KBG 173 infected in ICR mouse assessed as animal survival at 80 mg/kg/day, po qd administered 3 to 5 days post infection; type: functional, organism-based; conditions: time 3-5 day
# Plasmodium berghei [17] = test: Antimalarial activity against Plasmodium berghei KBG 173 infected in ICR mouse assessed as animal survival at 320 mg/kg/day, po qd administered 3 to 5 days post infection; type: functional, organism-based; conditions: time 3-5 day
# [18] = system: Plasmodium yoelii nigeriensis; test: Antiplasmodial activity against Plasmodium yoelii nigeriensis infected in po dosed mouse assessed as reduction in parasitemia; type: functional
# [19] = system: Plasmodium yoelii nigeriensis; test: Antiplasmodial activity against Plasmodium yoelii nigeriensis infected in sc dosed mouse assessed as reduction in parasitemia; type: functional
# Plasmodium falciparum [20] = test: Antimalarial activity against chloroquine resistant Plasmodium falciparum FcM29 Cameron; type: functional, organism-based
# Plasmodium falciparum [21] = test: Antimalarial activity against chloroquine sensitive Plasmodium falciparum D6; type: functional, organism-based
# Plasmodium falciparum [22] = test: Antiplasmodial activity against Plasmodium falciparum D6; type: functional, organism-based
# Plasmodium falciparum [23] = test: Antiplasmodial activity against Plasmodium falciparum 3D7; type: functional, organism-based
# Plasmodium berghei [24] = test: Antiplasmodial activity against Plasmodium berghei N infected in sc dosed mouse assessed as reduction in parasitemia; type: functional
smiles,measurement,setting,value
C[C@@H]1CC[C@H]2[C@@H](C)C(OC(=O)CCC(=O)O)(C(F)(F)F)O[C@@H]3O[C@]4(C)CC[C@@H]1[C@]32OO4 (some centres undefined),IC50,Plasmodium falciparum [1],0.0041 µM
same,half-life,[2],30 h
C=C(c1ccccc1)C1COC2(CCC(NCCNc3ccnc4cc(Cl)ccc34)CC2)OO1 (centres undefined),Activity,Plasmodium yoelii,89%
COc1ccc2nc3cc(Cl)ccc3c(N3CCN(CCO[C@H]4O[C@@H]5O[C@]6(C)CC[C@H]7[C@H](C)CC[C@@H]([C@H]4C)[C@@]57OO6)C(C)C3)c2c1 (some centres undefined),IC50,Plasmodium falciparum [3],0.0413 µM
same,IC50,Plasmodium falciparum [4],0.017 µM
C[C@@H]1CC[C@H]2[C@@H](C)C(OCc3ccc(C(=O)N(CCNc4ccnc5cc(Cl)ccc45)CC(=O)NC4CCCCC4)cc3)O[C@@H]3O[C@]4(C)CC[C@@H]1[C@]32OO4 (some centres undefined),IC50,"Plasmodium falciparum [5]; Plasmodium falciparum, K1",0.023 µM
same,Ratio IC50,Plasmodium falciparum [6],1
same,IC50,"Plasmodium falciparum [7]; Plasmodium falciparum, D10",0.026 µM
same,IC50,"HeLa; Homo sapiens, HeLa",0.286 µM
same,selectivity ratio,[8],12
same,IC50,Hemozoin,0.45 equiv
C=C(c1ccccc1)C1COC2(CCC(NCCCCNc3ccnc4cc(Cl)ccc34)CC2)OO1 (centres undefined),Activity,Plasmodium yoelii,89%
C[C@@H]1CC[C@H]2[C@@H](C)C(OCc3ccc(C(=O)N(CCCCNc4ccnc5cc(Cl)ccc45)CC(=O)NC4CCCCC4)cc3)O[C@@H]3O[C@]4(C)CC[C@@H]1[C@]32OO4 (some centres undefined),IC50,"Plasmodium falciparum [5]; Plasmodium falciparum, K1",0.021 µM
same,Ratio IC50,Plasmodium falciparum [6],0.88
same,IC50,"Plasmodium falciparum [7]; Plasmodium falciparum, D10",0.035 µM
same,IC50,"HeLa; Homo sapiens, HeLa",0.169 µM
same,selectivity ratio,[8],8
same,IC50,Hemozoin,0.31 equiv
COc1ccc2nc3cc(Cl)ccc3c(NCCCN(C)CCO[C@H]3O[C@@H]4O[C@]5(C)CC[C@H]6[C@H](C)CC[C@@H]([C@H]3C)[C@@]46OO5)c2c1,IC50,Plasmodium falciparum [3],0.0385 µM
same,IC50,Plasmodium falciparum [4],0.0122 µM
COc1ccc2nc3cc(Cl)ccc3c(N3CCN(CCO[C@H]4O[C@@H]5O[C@]6(C)CC[C@H]7[C@H](C)CC[C@@H]([C@H]4C)[C@@]57OO6)CC3)c2c1,IC50,Plasmodium falciparum [3],0.43 µM
same,IC50,Plasmodium falciparum [4],0.267 µM
C[C@@H]1CC[C@H]2[C@@H](C)C(OCc3ccc(C(=O)N(CCNc4ccnc5cc(Cl)ccc45)CC(=O)NC(C)(C)C)cc3)O[C@@H]3O[C@]4(C)CC[C@@H]1[C@]32OO4.O=C(O)CC(O)(CC(=O)O)C(=O)O (some centres undefined),IC50,Plasmodium falciparum [5],0.018 µM
same,Ratio IC50,Plasmodium falciparum [6],0.7
same,IC50,Plasmodium falciparum [7],0.024 µM
same,IC50,HeLa; hela,0.356 µM
same,Ratio IC50,[8],20
same,IC50,Hemozoin,0.4 equiv
COc1cc(NC(C)CCCNC(=O)C2CCC3(CC2)OOC2(OO3)C3CC4CC(C3)CC2C4)c2nccc(C(F)(F)F)c2c1 (centres undefined),CC50,Caco-2,> 50000 µM
same,EC50,Plasmodium falciparum [9],0.06 µM
same,EC50,Plasmodium berghei [10],4.12 µM
O=C(NCCNc1ccnc2cc(Cl)ccc12)C1CCC2(CC1)OOC1(CCCCC1)OO2,IC90,Plasmodium falciparum [11],0.00378 µM
same,Time,Plasmodium berghei [12],14.2 days
same,Activity,Plasmodium berghei [13],inactive
same,Time,Plasmodium berghei [14],>31 days
same,Time,Plasmodium berghei [15],26.2 days
same,Activity,Plasmodium berghei [16],Active
same,Activity,Plasmodium berghei [17],Active
C[C@@H]1CC[C@@H]2[C@]34OO[C@@](C)(CC[C@@H]13)O[C@H]4OC(Nc1cccc(F)c1)[C@@]2(C)Br (some centres undefined),IC50,Plasmodium falciparum [1],0.16 ng/mL
C[C@@H]1CC[C@H]2[C@@H](C)C(=O)O[C@@H]3O[C@@]4(C)CC[C@@H]1[C@]32OO4 [ARTEMISININ],CD50,[18],75 mg/kg/day
same,CD90,[18],>100 mg/kg/day
same,ED50,[18]; Plasmodium yoelii,16 mg/kg/day
same,ED90,[18]; Plasmodium yoelii,27 mg/kg/day
same,CD50,[19],3 mg/kg/day
same,CD90,[19],5 mg/kg/day
same,ED50,[19]; Plasmodium yoelii,3 mg/kg/day
same,ED90,[19]; Plasmodium yoelii,5 mg/kg/day
same,IC50,Plasmodium falciparum [20],0.007 µM
same,IC50,Plasmodium falciparum [11],0.013 µM
same,IC90,Plasmodium falciparum [11],0.0174 µM
same,IC50,Plasmodium falciparum [21],0.008 µM
same,IC50,"Plasmodium falciparum [7]; Plasmodium falciparum, D10",0.023 µM
same,IC50,Plasmodium falciparum [22],0.009 µM
same,IC90,Plasmodium falciparum [22],0.0128 µM
same,IC50,Plasmodium falciparum [9],0.0067 µM
same,IC90,Plasmodium falciparum [9],0.0115 µM
same,IC50,Plasmodium falciparum [23],0.00532 µM
same,IC50,Hemozoin,0.66 equiv
C[C@@H]1CC[C@H]2[C@@H](C)C(OCc3ccc(C(=O)N(CCNc4ccnc5cc(Cl)ccc45)CC(=O)NC(C)(C)C)cc3)O[C@@H]3O[C@]4(C)CC[C@@H]1[C@]32OO4 (some centres undefined),IC50,"Plasmodium falciparum [5]; Plasmodium falciparum, K1",0.019 µM
same,Ratio IC50,Plasmodium falciparum [6],0.6
same,IC50,"Plasmodium falciparum [7]; Plasmodium falciparum, D10",0.027 µM
same,IC50,"HeLa; Homo sapiens, HeLa",0.496 µM
same,selectivity ratio,[8],26
same,IC50,Hemozoin,0.44 equiv
C[C@@H]1CC[C@H]2[C@@H](C)C(c3cccn3C)O[C@@H]3O[C@]4(C)CC[C@@H]1[C@]32OO4 (some centres undefined),ED50,Plasmodium berghei [24],0.7 mg/kg
same,IC50,Plasmodium falciparum [4],0.0046 µM
COc1ccc2nc3cc(Cl)ccc3c(NCCN3CCN(CCO[C@H]4O[C@@H]5O[C@]6(C)CC[C@H]7[C@H](C)CC[C@@H]([C@H]4C)[C@@]57OO6)CC3)c2c1,IC50,Plasmodium falciparum [3],0.0504 µM
same,IC50,Plasmodium falciparum [4],0.0141 µM
COc1cc(NC(C)CCCNC(=O)C2CCC3(CC2)OOC2(OO3)C3CC4CC(C3)CC2C4)c2nccc(F)c2c1 (centres undefined),CC50,Caco-2,> 50000 µM
same,EC50,Plasmodium falciparum [9],0.057 µM
same,EC50,Plasmodium berghei [10],2.38 µM
COc1cc(NC(C)CCCNC(=O)C2CCC3(CC2)OOC2(OO3)C3CC4CC(C3)CC2C4)c2nccc(Br)c2c1 (centres undefined),CC50,Caco-2,> 50000 µM
same,EC50,Plasmodium falciparum [9],0.061 µM
same,EC50,Plasmodium berghei [10],4.44 µM
